From patent US4332805A, “Decahydroquinolinol derivatives and methods of treating cardiac arrythmias or inducing local anaesthesia with them” (priority 1979, dated 1982)
Where a name gives a salt, the structure may show the parent alone.

Assay: LAWSON test: protection against chloroform-induced ventricular fibrillation
Format: in vivo, mice
Conditions: Mus musculus, po, 0.5 h; female mice, intragastric, 30 minutes before chloroform; salts (hydrochloride); read-out: AD50 (dose protecting 50% of the animals against ventricular fibrillation)
Procedure: The arrhythmia was induced, in this test, by inhalation of chloroform until breathing stopped.
For each dose of the substance to be studied, batches of 10 female mice, each of about 20 g, were used. These mice had been fasting for 18 hours before the test. A batch of 10 animals was used as control group.
A dose of the compound to be studied was first administered by intragastric route except to the controls which only received the solvent used with the compound in question. Thirty minutes later, the animals were placed under a dome-shaped receptacle containing a high concentration of chloroform obtained by means of a strongly impregnated pad.
The animals were removed when totally asphyxiated (about 2 minutes later), the thorax was rapidly opened and the ventricular rhythm observed. The dose of the compound under study which protected 50% of the animals against ventricular fibrillation was then determined.
This protective dose is expressed as AD50 in mg/kg in the following Table. […]
Another comparative test was performed under the same conditions with
several compounds included within the scope of U.S. Pat. No. 3,882,129 at
the single dose of 100 mg/kg by intragastric route.
The following results were obtained which are expressed in percentage of protection obtained against the arrhythmic effect at the studied dose: […]

| SMILES | ED50 [mg/kg] |
| --- | --- |
| COc1cc(C(C)=O)ccc1OCCCN1CC[C@@H](OC(=O)Nc2ccc(Br)cc2)[C@H]2CCCC[C@@H]21 (relative stereo) [1-[3-(4-Acetyl-2-methoxy-phenoxy)-propyl]-4-[4-(bromo-phenyl)-carbamoyloxy]-trans-decahydroquinoline hydrochloride (axial form)] | > 100 |
| COc1cc(C(C)=O)ccc1OCCCN1CC[C@@H](OC(N)=O)[C@H]2CCCC[C@@H]21 (relative stereo) [1-[3-(4-Acetyl-2-methoxy-phenoxy)-propyl]-4-carbamoyloxy-trans-decahydroquinoline hydrochloride (axial form)] | > 100 |
| NC(=O)O[C@@H]1CCN(CCOc2c(Cl)cccc2Cl)[C@H]2CCCC[C@H]12 (relative stereo) [4-Carbamoyloxy-1-[2-(2,6-dichloro-phenoxy)-ethyl]-trans-decahydroquinoline hydrochloride (axial form)] | 50 |
| NC(=O)O[C@H]1CCN(CCCOc2ccc(F)cc2)[C@H]2CCCC[C@H]12 (relative stereo) [4-Carbamoyloxy-1-[3-(4-fluoro-phenoxy)-propyl]-trans-decahydroquinoline hydrochloride (equatorial form)] | 45 |
| Cc1ccc(NC(=O)O[C@@H]2CCN(CCCOc3ccc(F)cc3)[C@H]3CCCC[C@H]23)cc1Cl (relative stereo) [4-[3-(Chloro-4-methyl-phenyl)-carbamoyloxy]-1-[3-(4-fluoro-phenoxy)-propyl]-trans-decahydroquinoline hydrochloride (axial form)] | > 100 |
| Cc1ccc(NC(=O)O[C@H]2CCN(CCCOc3ccc(F)cc3)[C@H]3CCCC[C@H]23)cc1Cl (relative stereo) [4-[(3-Chloro-4-methyl-phenyl)-carbamoyloxy]-1-[3-(4-fluoro-phenoxy)-propyl]-trans-decahydroquinoline hydrochloride (equatorial form)] | 30 |
| O=C(Nc1ccc(Br)cc1)O[C@H]1CCN(CCCOc2ccc(F)cc2)[C@H]2CCCC[C@H]12 (relative stereo) [4-[(4-Bromo-phenyl)-carbamoyloxy]-1-[3-(4-fluoro-phenoxy)-propyl]-trans-decahydroquinoline hydrochloride (equatorial form)] | 120 |
| O=C(Nc1ccc(Br)cc1)O[C@@H]1CCN(CCCOc2ccc(F)cc2)[C@H]2CCCC[C@H]12 (relative stereo) [4-[(4-Bromo-phenyl)-carbamoyloxy]-[1-3-(4-fluoro-phenoxy)-propyl]-trans-decahydroquinoline hydrochloride (axial form)] | 150 |
| CCNC(=O)O[C@@H]1CCN(CCCOc2ccc(F)cc2)[C@H]2CCCC[C@H]12 (relative stereo) [ethyl, 3, O, 4-fluoro-phenyl, axial, 4-(N-Ethylcarbamoyloxy)-1-[3-(4-fluoro-phenoxy)-propyl]-trans-decahydroquinoline hydrochloride (axial form)] | 50 |
| NC(=O)O[C@@H]1CCN(CCOc2cccc3ccccc23)[C@H]2CCCC[C@H]12 (relative stereo) [hydrogen, 2, O, 1-naphthyl, axial, 4-Carbamoyloxy-1-[2-(1-naphthyloxy)-ethyl]-trans-decahydroquinoline hydrochloride (axial form)] | 75 |
| COc1ccccc1OCCN1CC[C@@H](OC(N)=O)[C@H]2CCCC[C@@H]21 (relative stereo) [hydrogen, 2, O, 2-methoxy-phenyl, axial, 4-Carbamoyloxy-1-[2-(2-methoxy-phenoxy)-ethyl]-trans-decahydroquinoline hydrochloride (axial form)] | 75 |
| NC(=O)O[C@@H]1CCN(CCOc2ccc3ccccc3c2)[C@H]2CCCC[C@H]12 (relative stereo) [hydrogen, 2, O, 2-naphthyl, axial, 4-Carbamoyloxy-1-[2-(2-naphthyloxy)-ethyl]-trans-decahydroquinoline hydrochloride (axial form)] | 50 |
| NC(=O)O[C@@H]1CCN(CCOc2ccc(Br)cc2)[C@H]2CCCC[C@H]12 (relative stereo) [hydrogen, 2, O, 4-bromo-phenyl, axial, 1-[2-(4-Bromo-phenoxy)-ethyl]-4 carbamoyloxy-trans-decahydroquinoline hydrochloride (axial form)] | 90 |
| NC(=O)O[C@@H]1CCN(CCOc2ccc(F)cc2)[C@H]2CCCC[C@H]12 (relative stereo) [hydrogen, 2, O, 4-fluoro-phenyl, axial, 4-Carbamoyloxy-1-[2-(4-fluoro-phenoxy)-ethyl]-trans-decahydroquinoline hydrochloride (axial form)] | > 100 |
| NC(=O)O[C@@H]1CCN(CCCOc2cccc3ccccc23)[C@H]2CCCC[C@H]12 (relative stereo) [hydrogen, 3, O, 1-naphthyl, axial, 4-Carbamoyloxy-1-[3-(1-naphthyloxy)-propyl]-trans-decahydroquinoline hydrochloride (axial form)] | > 100 |
| NC(=O)O[C@@H]1CCN(CCCOc2ccc3ccccc3c2)[C@H]2CCCC[C@H]12 (relative stereo) [hydrogen, 3, O, 2-naphthyl, axial, 4-Carbamoyloxy-1-[3-(2-naphthyloxy)-propyl]-trans-decahydroquinoline hydrochloride (axial form)] | > 100 |
| CC(=O)c1ccc(OCCCN2CC[C@@H](OC(N)=O)[C@H]3CCCC[C@@H]32)cc1 (relative stereo) [hydrogen, 3, O, 4-acetyl-phenyl, axial, 1-[3-(4-Acetyl-phenoxy)-propyl]-4-carbamoyloxy-trans-decahydroquinoline hydrochloride (axial form)] | > 100 |
| NC(=O)O[C@@H]1CCN(CCCOc2ccc(Br)cc2)[C@H]2CCCC[C@H]12 (relative stereo) [hydrogen, 3, O, 4-bromo-phenyl, axial, 1-[3-(4-Bromo-phenoxy)-propyl]-4-carbamoyloxy-trans-decahydroquinoline hydrochloride (axial form)] | 65 |
| NC(=O)O[C@@H]1CCN(CCCOc2ccc(Cl)cc2)[C@H]2CCCC[C@H]12 (relative stereo) [hydrogen, 3, O, 4-chloro-phenyl, axial, 4-Carbamoyloxy-1-[3-(4-chloro-phenoxy)-propyl]-trans-decahydroquinoline hydrochloride (axial form)] | > 100 |
| N#Cc1ccc(OCCCN2CC[C@@H](OC(N)=O)[C@H]3CCCC[C@@H]32)cc1 (relative stereo) [hydrogen, 3, O, 4-cyano-phenyl, axial, 4-Carbamoyloxy-1-[3-(4-cyano-phenoxy)-propyl]-trans-decahydroquinoline hydrochloride (axial form)] | 30 |
| COc1ccc(OCCCN2CC[C@@H](OC(N)=O)[C@H]3CCCC[C@@H]32)cc1 (relative stereo) [hydrogen, 3, O, 4-methoxy-phenyl, axial, 4-Carbamoyloxy-1-[3-(4-methoxy-phenoxy)-propyl]-trans-decahydroquinoline hydrochloride (axial form)] | > 100 |
| Cc1ccc(OCCCN2CC[C@@H](OC(N)=O)[C@H]3CCCC[C@@H]32)cc1 (relative stereo) [hydrogen, 3, O, 4-methyl-phenyl, axial, 4-Carbamoyloxy-1-[3-(4-methyl-phenoxy)-propyl]-trans-decahydroquinoline hydrochloride (axial form)] | > 100 |
| NC(=O)O[C@@H]1CCN(CCCOc2ccccc2)[C@H]2CCCC[C@H]12 (relative stereo) [hydrogen, 3, O, phenyl, axial, 4-Carbamoyloxy-1-(3-phenoxy-propyl)-trans-decahydroquinoline hydrochloride (axial form)] | > 100 |
| NC(=O)O[C@@H]1CCN(CCCSc2ccc(F)cc2)[C@H]2CCCC[C@H]12 (relative stereo) [hydrogen, 3, S, 4-fluoro-phenyl, axial, 4-Carbamoyloxy-1-[3-(4-fluoro-phenylthio)-propyl]-trans-decahydroquinoline hydrochloride (axial form)] | > 100 |
| CCCCNC(=O)O[C@@H]1CCN(CCCOc2ccc(F)cc2)[C@H]2CCCC[C@H]12 (relative stereo) [n-butyl, 3, O, 4-fluoro-phenyl, axial, 4-(N-n-butylcarbamoyloxy)-1-[3-(4-fluoro-phenoxy)-propyl]-trans-decahydroquinoline hydrochloride (axial form)] | 50 |
| CCCNC(=O)O[C@@H]1CCN(CCCOc2ccc(F)cc2)[C@H]2CCCC[C@H]12 (relative stereo) [n-propyl, 3, O, 4-fluoro-phenyl, axial, 1-[3-(4-Fluoro-phenoxy)-propyl]-4-(N-n-propyl-carbamoyloxy)-trans-decahydroquinoline hydrochloride (axial form)] | 80 |

Same assay, conditions: female mice, intragastric, 30 minutes before chloroform; salts (hydrochloride)

| SMILES | AD50 (dose protecting 50% of the animals against ventricular fibrillation) [mg/kg] |
| --- | --- |
| CNC(=O)O[C@@H]1CCN(CCCOc2ccc(F)cc2)[C@H]2CCCC[C@H]12 (relative stereo) [methyl, 3, O, 4-fluoro-phenyl, axial, 1-[3-(4-Fluoro-phenoxy)-propyl]-4-(N-methylcarbamoyloxy)-trans-decahydroquinoline hydrochloride (axial form)] | 55 |
